What all share (assay type): cell-based
Assay [1] relates to VCaP cells. Description: VCaP growth inhibition assay (CTG). The note with it: Homo sapiens, 216 h, 30 pM R1881, 9 days. The essentials: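 Growth was measured by CTG luminescence after a 9-day exposure of VCaP cells to compound (final 10 fM–100 nM, fivefold steps) in the presence of 30 pM final R1881, in phenol red-free DMEM/5% CSS. IC50 values were derived by nonlinear 4-parameter regression of RLU against concentration.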

Assay [2] has as its target AR / CBP ternary complex (Homo sapiens, UniProt P10275+Q92793). Description: Ternary complex formation assay (sandwich ELISA, AR capture, CBP antibody detection) in VCaP cell lysates. The procedure, abridged: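 Sandwich ELISA: plates were coated with anti-AR antibody (AR441) and given lysates of VCaP cells treated 1.5 h with bifunctional compound in charcoal-stripped serum. Co-captured CBP or p300 was probed with rabbit mAbs and HRP secondary. Chemifluorescent signal (ex 570/em 585) was read at 0, 5 and 15 min.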
(In an ELISA, binding on a coated surface is turned into a signal by an enzyme label.)

In assay [3] the test system is HEK-293 cells. The assay is described as follows: HEK-293 growth inhibition assay (CTG). As to conditions: Homo sapiens, HEK293, 72 h, 3 days. The protocol:
HEK-293 cells (ATCC Cat #CRL-1573) are plated at 3×10^3 cells per well of a white plastic 96-well cluster plate (Thermo Scientific Nunc Cat #165306) in 200 uL DMEM (ATCC Cat #30-2002) media with 10% FBS (Gibco Cat #26140-079). Cluster plates are returned to the incubator (37*C/5% CO2) for 24 hours prior to treatment. Compounds (200X) were added to each well in a volume of 1 uL, with serial dilutions (1:5) from 2 mM to 200 pM (final concentrations in well are 10 uM to 1 pM). Cluster plates are returned to the incubator for 3 days.
After the 3-day treatment period, 100 uL media was removed from each well by aspiration and 100 uL room temperature CTG reagent (Promega Cat #G7573) is added back to each well. The cluster plates are placed on a shaker and incubated at room temperature for 20 minutes. Following this shaking/incubation, cluster plates are read on a luminometer (BMG ClarioStar). IC50 values are obtained by graphing the RLU data vs. compound concentration with nonlinear regression 4-parameter logistic curves (GraphPad Prism).

[4] abbreviates: treated 1.5 hours, rabbit CBP or p300 antibody detection, average, read-out: Average Ternary Complex.

Read-outs that look alike come from different tables or passages of the source.

For orientation: IC50 means the concentration that inhibits the measured activity by half. Higher therefore signals weaker potency in that assay.

AR / CBP ternary complex, sequence (P10275 whole entry): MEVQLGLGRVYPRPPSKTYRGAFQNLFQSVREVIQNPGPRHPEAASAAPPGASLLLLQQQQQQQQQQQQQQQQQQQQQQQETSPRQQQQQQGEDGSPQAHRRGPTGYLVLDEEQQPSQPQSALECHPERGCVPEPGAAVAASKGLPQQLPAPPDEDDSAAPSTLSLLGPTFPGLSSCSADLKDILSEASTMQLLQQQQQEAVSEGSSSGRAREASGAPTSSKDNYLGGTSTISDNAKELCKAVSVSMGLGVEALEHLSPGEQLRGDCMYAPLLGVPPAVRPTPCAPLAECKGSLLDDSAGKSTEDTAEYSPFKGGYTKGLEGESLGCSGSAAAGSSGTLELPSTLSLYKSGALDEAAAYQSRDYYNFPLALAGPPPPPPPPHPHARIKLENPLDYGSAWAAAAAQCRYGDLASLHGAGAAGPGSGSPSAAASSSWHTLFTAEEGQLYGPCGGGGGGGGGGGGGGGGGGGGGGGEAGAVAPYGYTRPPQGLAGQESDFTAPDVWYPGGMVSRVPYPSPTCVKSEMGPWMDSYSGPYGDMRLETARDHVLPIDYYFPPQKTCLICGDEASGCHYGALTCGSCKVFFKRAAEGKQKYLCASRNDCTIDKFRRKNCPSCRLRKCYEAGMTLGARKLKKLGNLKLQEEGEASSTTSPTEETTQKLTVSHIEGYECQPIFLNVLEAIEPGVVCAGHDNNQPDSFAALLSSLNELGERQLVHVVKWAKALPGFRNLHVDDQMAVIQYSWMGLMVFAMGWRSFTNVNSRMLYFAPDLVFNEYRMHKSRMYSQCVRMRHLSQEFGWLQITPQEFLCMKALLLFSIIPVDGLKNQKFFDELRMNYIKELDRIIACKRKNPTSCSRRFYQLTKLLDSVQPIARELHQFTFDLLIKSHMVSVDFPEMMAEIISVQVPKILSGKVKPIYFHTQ
AR / CBP ternary complex, sequence (Q92793 2-2442): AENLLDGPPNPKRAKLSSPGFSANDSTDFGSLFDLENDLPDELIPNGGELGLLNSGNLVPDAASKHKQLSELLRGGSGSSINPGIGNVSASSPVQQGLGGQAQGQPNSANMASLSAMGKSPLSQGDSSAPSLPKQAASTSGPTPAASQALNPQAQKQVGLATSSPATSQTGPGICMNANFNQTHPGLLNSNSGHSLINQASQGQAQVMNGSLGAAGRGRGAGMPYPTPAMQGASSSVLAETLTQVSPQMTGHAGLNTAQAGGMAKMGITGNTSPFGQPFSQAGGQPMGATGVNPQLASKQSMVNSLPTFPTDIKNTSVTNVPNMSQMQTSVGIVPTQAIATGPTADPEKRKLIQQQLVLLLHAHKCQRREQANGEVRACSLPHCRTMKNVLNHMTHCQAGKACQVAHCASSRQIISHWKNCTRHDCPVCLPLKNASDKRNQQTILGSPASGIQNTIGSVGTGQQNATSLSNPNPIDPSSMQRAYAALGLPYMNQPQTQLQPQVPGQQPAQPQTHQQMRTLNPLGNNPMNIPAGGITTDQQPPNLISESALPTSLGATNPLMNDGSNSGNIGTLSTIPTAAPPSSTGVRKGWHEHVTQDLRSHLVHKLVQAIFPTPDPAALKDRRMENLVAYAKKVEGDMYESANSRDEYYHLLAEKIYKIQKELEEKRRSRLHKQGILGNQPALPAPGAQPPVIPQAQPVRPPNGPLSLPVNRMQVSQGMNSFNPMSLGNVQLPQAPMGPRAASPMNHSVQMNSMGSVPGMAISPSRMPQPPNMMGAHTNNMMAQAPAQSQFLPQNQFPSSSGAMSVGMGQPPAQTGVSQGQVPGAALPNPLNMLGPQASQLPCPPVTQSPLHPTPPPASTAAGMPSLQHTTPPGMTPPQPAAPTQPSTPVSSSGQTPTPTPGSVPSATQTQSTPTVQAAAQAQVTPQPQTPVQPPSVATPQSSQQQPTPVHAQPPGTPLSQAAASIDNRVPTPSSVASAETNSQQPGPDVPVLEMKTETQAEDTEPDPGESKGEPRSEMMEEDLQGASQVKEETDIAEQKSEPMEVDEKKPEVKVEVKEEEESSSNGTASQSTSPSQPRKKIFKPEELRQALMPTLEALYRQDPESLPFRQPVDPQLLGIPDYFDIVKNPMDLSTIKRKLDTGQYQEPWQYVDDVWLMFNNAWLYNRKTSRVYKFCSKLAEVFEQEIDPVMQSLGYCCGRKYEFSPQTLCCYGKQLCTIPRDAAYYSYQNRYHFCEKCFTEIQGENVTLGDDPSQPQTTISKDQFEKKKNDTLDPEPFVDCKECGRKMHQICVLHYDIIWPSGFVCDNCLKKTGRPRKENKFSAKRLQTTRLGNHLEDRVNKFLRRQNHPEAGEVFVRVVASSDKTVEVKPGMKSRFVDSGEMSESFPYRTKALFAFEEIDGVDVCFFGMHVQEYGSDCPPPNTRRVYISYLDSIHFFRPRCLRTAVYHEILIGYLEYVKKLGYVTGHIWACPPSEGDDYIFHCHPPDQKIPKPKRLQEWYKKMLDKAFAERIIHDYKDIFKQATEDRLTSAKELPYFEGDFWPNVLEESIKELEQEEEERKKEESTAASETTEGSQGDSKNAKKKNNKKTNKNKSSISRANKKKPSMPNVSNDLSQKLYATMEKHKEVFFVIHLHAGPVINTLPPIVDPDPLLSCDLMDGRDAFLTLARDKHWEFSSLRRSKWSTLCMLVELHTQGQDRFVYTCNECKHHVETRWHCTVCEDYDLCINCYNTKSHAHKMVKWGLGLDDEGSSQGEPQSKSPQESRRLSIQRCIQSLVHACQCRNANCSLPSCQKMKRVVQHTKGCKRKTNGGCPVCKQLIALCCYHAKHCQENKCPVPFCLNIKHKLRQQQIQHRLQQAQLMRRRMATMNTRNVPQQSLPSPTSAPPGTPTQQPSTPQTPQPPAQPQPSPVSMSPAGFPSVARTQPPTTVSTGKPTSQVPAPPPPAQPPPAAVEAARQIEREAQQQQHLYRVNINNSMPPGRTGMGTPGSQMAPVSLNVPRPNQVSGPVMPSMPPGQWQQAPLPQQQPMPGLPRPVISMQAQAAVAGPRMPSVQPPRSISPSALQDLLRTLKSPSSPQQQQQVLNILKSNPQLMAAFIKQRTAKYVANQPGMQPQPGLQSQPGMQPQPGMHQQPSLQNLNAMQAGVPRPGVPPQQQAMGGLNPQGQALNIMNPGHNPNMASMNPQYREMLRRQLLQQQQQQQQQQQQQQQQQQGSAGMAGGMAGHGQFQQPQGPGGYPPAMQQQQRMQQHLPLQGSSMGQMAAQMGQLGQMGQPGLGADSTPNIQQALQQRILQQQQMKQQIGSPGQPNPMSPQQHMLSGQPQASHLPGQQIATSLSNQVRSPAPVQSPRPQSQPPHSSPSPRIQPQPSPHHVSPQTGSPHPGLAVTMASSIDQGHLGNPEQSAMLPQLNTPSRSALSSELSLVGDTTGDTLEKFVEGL

Consider `CC(=O)N1CCc2c(c(N3CCCc4cc(-c5cnn(C)c5)c(C(F)F)cc43)nn2C2CCN(C(=O)COC3CCN(c4ccc(C(=O)N[C@H]5CC[C@H](Oc6ccc(C#N)c(Cl)c6)CC5)nn4)CC3)CC2)C1` [Compound 1, 6-[4-[2-[4-[5-acetyl-3-[7-(difluoromethyl)-6-(1-methylpyrazol-4-yl)-3,4-dihydro-2H-quinolin-1-yl]-6,7-dihydro-4H-pyrazolo[4,3-c]pyridin-1-yl]-1-piperidyl]-2-oxo-ethoxy]-1-piperidyl]-N-[4-(3-chloro-4-cyano-phenoxy)cyclohexyl]pyridazine-3-carboxamide], for which the 50% inhibitory concentration (IC50) in assay [1] is at most 0.1 nM; in assay [3] it was above 10000 nM. Further, the EC50 in assay [2] (setting [4]) is below 1 nM.

In assay [1], `CC(=O)N1CCc2c(c(-c3cccc4cc(-c5ccc(CCC6CCN(c7ccc(C(=O)N[C@H]8CC[C@H](Oc9ccc(C#N)c(Cl)c9)CC8)nn7)CC6)nc5)ncc34)nn2C)C1` [Compound 20, 6-[4-[2-[5-[8-(5-acetyl-1-methyl-6,7-dihydro-4H-pyrazolo[4,3-c]pyridin-3-yl)-3-isoquinolyl]-2-pyridyl]ethyl]-1-piperidyl]-N-[4-(3-chloro-4-cyano-phenoxy)cyclohexyl]pyridazine-3-carboxamide] gave an IC50 of at most 0.1 nM. Also, the EC50 in assay [2] (setting [4]) was below 1 nM.

In assay [1], `CC(=O)N1CCc2c(c(N3CCCc4cc(-c5cnn(C)c5)c(C(F)F)cc43)nn2[C@H]2CC[C@]3(CCCN(C4CN(c5ccc(C(=O)N[C@H]6CC[C@H](Oc7ccc(C#N)c(Cl)c7)CC6)nn5)C4)C3)CC2)C1` [Compound 268, 6-[3-[9-[5-acetyl-3-[7-(difluoromethyl)-6-(1-methylpyrazol-4-yl)-3,4-dihydro-2H-quinolin-1-yl]-6,7-dihydro-4Hpyrazolo[4,3-c]pyridin-1-yl]-2-azaspiro[5.5]undecan-2-yl]azetidin-1-yl]-N-[4-(3-chloro-4-cyanophenoxy)cyclohexyl]pyridazine-3-carboxamide] had an IC50 of 0.1 to 1 nM. In addition, the EC50 in assay [2] (setting [4]) was below 1 nM.

`Cc1cc2c(N3CCCc4cc(-c5cnn(C)c5)c(C(F)F)cc43)cc(N3CCN(CC4CCN(c5ccc(C(=O)N[C@H]6CC[C@H](Oc7ccc(C#N)c(Cl)c7)CC6)nn5)CC4)CC3)cc2n(C)c1=O` [Compound 135, N-[4-(3-chloro-4-cyano-phenoxy)cyclohexyl]-6-[4-[[4-[5-[7-(difluoromethyl)-6-(1-methylpyrazol-4-yl)-3,4-dihydro-2H-quinolin-1-yl]-1,3-dimethyl-2-oxo-7-quinolyl]piperazin-1-yl]methyl]-1-piperidyl]pyridazine-3-carboxamide]: the 50% inhibitory concentration (IC50) in assay [1] lay within 0.1 to 1 nM. For the same compound, the EC50 in assay [2] (setting [4]) lay within 1 to 10 nM.

Regarding `CC(=O)N1CCc2c(c(N3CCCc4cc(-c5cnn(C)c5)c(C(F)F)cc43)nn2[C@H]2CC[C@H](N3CC4(CC(Oc5ccc(C(=O)N[C@H]6CC[C@H](Oc7ccc(C#N)c(Cl)c7)CC6)nn5)C4)C3)CC2)C1` [Compound 249], in assay [1], the IC50 was at most 0.1 nM. The EC50 in assay [2] (setting [4]) was below 1 nM.

Take `CC(=O)N1CCc2c(c(N3CCCc4cc(-c5cnn(C)c5)c(C(F)F)cc43)nn2C2CCN([C@H]3CCN(c4ccc(C(=O)N[C@H]5CC[C@H](Oc6ccc(C#N)c(Cl)c6)CC5)nn4)C3)CC2)C1` [Compound 221, 6-[(3S)-3-[4-[5-acetyl-3-[7-(difluoromethyl)-6-(1-methylpyrazol-4-yl)-3,4-dihydro-2H-quinolin-1-yl]-6,7-dihydro-4H-pyrazolo[4,3-c]pyridin-1-yl]-1-piperidyl]pyrrolidin-1-yl]-N-[4-(3-chloro-4-cyano-phenoxy)cyclohexyl]pyridazine-3-carboxamide]: in assay [1], the 50% inhibitory concentration (IC50) fell in the range of 1 to 100 nM. Besides, the EC50 in assay [2] (setting [4]) is above 100 nM.

The compound `CC(=O)N1CCc2c(c(N3CCCc4ccc(C(F)F)cc43)nn2C2CC3(C2)CN(C(=O)C2CC4(C2)CN(c2ccc(C(=O)N[C@H]5CC[C@H](Oc6ccc(C#N)c(Cl)c6)CC5)nn2)C4)C3)C1` (stereo partly shown) [Compound 42, 6-[6-[6-[5-acetyl-3-[7-(difluoromethyl)-3,4-dihydro-2H-quinolin-1-yl]-6,7-dihydro-4H-pyrazolo[4,3-c]pyridin-1-yl]-2-azaspiro[3.3]heptane-2-carbonyl]-2-azaspiro[3.3]heptan-2-yl]-N-[4-(3-chloro-4-cyano-phenoxy)cyclohexyl]pyridazine-3-carboxamide] returned an IC50 in assay [1] of 0.1 to 1 nM. In addition, the EC50 in assay [2] (setting [4]) fell in the range of 1 to 10 nM.

Regarding `Cn1c(=O)n(C)c2cc(N3CCCc4cc(-c5ccc(CCC6CCN(c7ccc(C(=O)N[C@H]8CC[C@H](Oc9ccc(C#N)c(Cl)c9)CC8)nn7)CC6)nc5)c(C(F)F)cc43)ccc21` [Compound 53, N-[4-(3-chloro-4-cyano-phenoxy)cyclohexyl]-6-[4-[2-[5-[7-(difluoromethyl)-1-(1,3-dimethyl-2-oxo-benzimidazol-5-yl)-3,4-dihydro-2H-quinolin-6-yl]-2-pyridyl]ethyl]-1-piperidyl] pyridazine-3-carboxamide], the 50% inhibitory concentration (IC50) in assay [1] was above 100 nM. In addition, in assay [2] (read-out: Average Ternary Complex, treated 1.5 hours, rabbit CBP or p300 antibody detection), the EC50 was below 1 nM.

On to `CC(=O)N1CCc2c(c(N3CCCc4cc(-c5cnn(C)c5)c(C(F)F)cc43)nn2C2CCN(CC3(C)CCN(c4ccc(C(=O)N[C@H]5CC[C@H](Oc6ccc(C#N)c(Cl)c6)CC5)nn4)CC3)CC2)C1` [Compound 100, 6-[4-[[4-[5-acetyl-3-[7-(difluoromethyl)-6-(1-methylpyrazol-4-yl)-3,4-dihydro-2H-quinolin-1-yl]-6,7-dihydro-4H-pyrazolo[4,3-c]pyridin-1-yl]-1-piperidyl]methyl]-4-methyl-1-piperidyl]-N-[4-(3-chloro-4-cyano-phenoxy)cyclohexyl]pyridazine-3-carboxamide], for which the 50% inhibitory concentration (IC50) in assay [1] was in the range of 0.1 to 1 nM. The EC50 in assay [2] (setting [4]) is below 1 nM.

In the case of `CC(=O)N1CCc2c(c(N3CCCc4cc(-c5cnn(C)c5)c(C(F)F)cc43)nn2C2CCC3(CC2)CN(C2CN(c4ccc(C(=O)N[C@H]5CC[C@H](Oc6ccc(C#N)c(Cl)c6)CC5)nn4)C2)C3)C1` [Compound 237], the IC50 in assay [1] was at most 0.1 nM. The EC50 in assay [2] (setting [4]) was below 1 nM.

For `CC(=O)N1CCc2c(c(N3CCCc4cc(-c5cnn(C)c5)c(C(F)F)cc43)nn2[C@H]2CC[C@@H](CN3CCN(c4ccc(C(=O)N[C@H]5CC[C@H](Oc6ccc(C#N)c(Cl)c6)CC5)nn4)CC3)CC2)C1` [Compound 210, 6-[4-[[4-[5-acetyl-3-[7-(difluoromethyl)-6-(1-methylpyrazol-4-yl)-3,4-dihydro-2H-quinolin-1-yl]-6,7-dihydro-4H-pyrazolo[4,3-c]pyridin-1-yl]cyclohexyl]methyl]piperazin-1-yl]-N-[4-(3-chloro-4-cyano-phenoxy)cyclohexyl]pyridazine-3-carboxamide], the 50% inhibitory concentration (IC50) in assay [1] is at most 0.1 nM. For the same compound, the EC50 in assay [2] (setting [4]) is below 1 nM.

In assay [1], `CC(=O)N1CCc2c(c(N3CCCc4cc(-c5cnn(C)c5)c(C(F)F)cc43)nn2C2CCN(C(=O)CC3CCN(c4ccc(C(=O)N[C@H]5CC[C@H](Oc6ccc(C#N)c(Cl)c6)CC5)nn4)CC3)CC2)C1` [Compound 14, 6-[4-[2-[4-[5-acetyl-3-[7-(difluoromethyl)-6-(1-methylpyrazol-4-yl)-3,4-dihydro-2H-quinolin-1-yl]-6,7-dihydro-4H-pyrazolo[4,3-c]pyridin-1-yl]-1-piperidyl]-2-oxo-ethyl]-1-piperidyl]-N-[4-(3-chloro-4-cyano-phenoxy)cyclohexyl]pyridazine-3-carboxamide] registered an IC50 of at most 0.1 nM. Also, in assay [2] (setting [4]), the EC50 was below 1 nM.

The values are drawn from US20250136578A1 (Kolm Therapeutics Inc., priority 2023, published 2025).
